Measured values taken from paper PMC9371589 (Behavioural pharmacology, 2022).

Assays:
Format in all cases: in vivo, rat
[1] = system: male Sprague-Dawley rats; test: Rotarod motor coordination; details: 10 mg/kg i.p., 30 minutes before test; vehicle 193.6 ± 14.9
[2] = system: male Sprague-Dawley rats; test: Complete Freund's Adjuvant; details: 48 hours after CFA injection (24 hours post-treatment)
[3] = system: male Sprague-Dawley rats; test: Brennan model of incisional pain
[4] = system: male Sprague-Dawley rats; test: Gastrointestinal transit of a charcoal meal; details: 30 mg/kg; vehicle 0.62 ± 0.02

## CN1C(=O)CN=C(c2ccccc2)c2cc(Cl)ccc21 [Diazepam, diazepam]
[1]
  time spent on the rotarod: 60.1 ± 23.7 s

## O=C(O)Cc1ccccc1Nc1c(Cl)cccc1Cl [Diclofenac, diclofenac]
[2]
  effect on edema: decreased edema

## CN1CC[C@]23c4c5ccc(O)c4O[C@H]2[C@@H](O)C=C[C@H]3[C@H]1C5 [morphine]
[3]; 5 mg/kg s.c. once a day for 7 consecutive days
  effect of daily administration on anti-hyperalgesic effect (tolerance): blunted its effects on hyperalgesia
[3]; after single s.c. administration
  duration of anti-hyperalgesic effect: < 6 h
[4]
  relative distance traveled (gastrointestinal transit): 0.22 ± 0.02
